Results as given in patent US7091243B2, “Anti-irritants” (Croda, Inc., priority 2001, dated 2006).

Experiments:
[1] = system: MDCK (Kidney, Canine) strain NBL-2 cells; test: Trans-Epithelial Permeability (TEP) Assay, intracellular leakage of sodium fluorescein; assay type: cell-based; settings: for anti-irritating activity: 3% ester in shampoo base, Table 7; for anti-irritating activity, comparison between esters: referring to Table 4, 5% ester
Description: The test methodology for measuring the irritation potential of alkoxylated esters is Trans-Epithelial Permeability (TEP) Assay. The TEP Assay measures intracellular leakage of a suitable marker reagent, such as sodium fluorescein, through cells that were exposed to irritant-containing compositions. Smaller leakage indicates lower degree of cell damage. If the cells are exposed to an irritant-containing composition with and without an anti-irritant, the magnitude of reduction in the intracellular leakage measures the anti-irritating ability of the anti-irritant. For additional discussion of the TEP Assay, see Tchao, R., Trans-Epithelial Permeability of Fluorescein In Vitro As An Assay To Determine Eye Irritants, Progress in In Vitro Toxicology, A M Goldberg ed., 6:271–283 (1988); Drewitt-Barlow, B., McPherson, J., Broyd, J. and Williamson, 2000. No Tears for Baby. Global Cosmetic Industry, (October, 2000): 16–20; Burke, J. and Joseph, L. B., 2000, In Vitro Analysis of the Irritation Mitigating Properties of PEG-150 Pentaerythrityl Tetrastearate, Society of Cosmetic Chemists, 2000 Technology Showcase, NY, N.Y., all of which are incorporated by reference herein.
The ingredients were dissolved in distilled water and pH was adjusted to 6.8 to 7.2. Sodium laurel ether sulfate (triethoxylated) is a known irritant. The irritation potentials of the compositions I, II, III and IV were measured using the TEP assay as follows.
MDCK (Kidney, Canine) strain NBL-2 purchased from American Type Culture Collection (CCL 34) were cultured under standard conditions. Three days prior to experimentation the cells were subcultured onto Corning 6.5 mm Transwell porous cell culture inserts at 1×10^5 cells per insert. Cells are grown to confluence in 3 days. The inserts were washed 5 times with phosphate buffered saline (PBS) immediately before testing. All reagents were made prior to experimentation, with the exception of the final dilutions with a saline solution, which were prepared on the day of the experiment.
The compositions I, II, III, and IV were diluted to 1:50 and 1:100 with Hanks Buffered Saline Solution (HBSS). For example, to prepare a 1:50 dilution of the test composition I, 1 part of the test composition I was mixed with 49 parts of HBSS. The diluted samples were placed on the ventral side of the insert (in duplicate) in direct contact with the cells for 15 minutes. Two inserts with HBSS were used as the negative control and inserts without cells were used as references of 100% leakage. After application of the test article, the inserts were washed with large amounts of PBS.
Sodium fluorescein was added directly to the cell monolayer and 1 ml of HBSS was placed in the well below. After 30 minutes of incubation at room temperature triplicate 200 μl samples were removed from the well and the optical density (OD) of the well fluid was determined. The experimental OD was then compared to the OD of 100% leakage reference (filter without cells), and provided a measure of irritation potential of the tested compositions.
The reductions in the irritation potential were calculated as the percentage of the absolute reduction relative to the control formulation (control is taken as 100%, and the percentages of reduction are calculated as 100% minus (observed leakage)/(observed leakage of control)×100%).

[2] = system: Epiocular™ Tissue Model (OCL-200); test: Epiocular Tissue Model (OCL-200) cell survival, MTT readout; assay type: cell-based; settings: 5% ester added to 10% SLS in PBS
Method: The following example illustrates the discovery of the anti-irritation activity of certain alkoxylated esters. A test composition A and a control composition B were prepared. The test composition A contained 5% of Di-PPG-3-PEG-4 Myristyl Ether Adipate, an alkoxylated (tripropoxy-tetraethoxy) diester of tripropoxy-tetraethoxy myristyl alcohol and adipic acid, and 10% of sodium laurel sulfate (SLS), a known irritant, in Phosphate Buffered Saline (PBS) at pH 6.8–7.2. The control composition B contained 10% SLS in PBS at the same pH without the alkoxylated ester. A separate solution of PBS (without SLS and the ester) was used as a negative control solution. The testing was carried out on Epiocular™, Tissue Model (OCL-200), from MatTek Corporation. Epiocular™ inserts were equilibrated overnight in assay media. Test composition A and B, and the negative control solution were then separately placed in direct contact with the cells. For each test substance, the progress of cell death was measured at 1, 5, and 10 minutes. The negative control inserts were exposed to phosphate buffered saline (PBS) for 10 minutes. The inserts were washed with PBS, equilibrated in Eagle's Minimal Essential Medium (EMEM) prior to incubation in MTT (3-[4,5-Dimethylthiazol-2-yl]-2,5-diphenyltetrazolium bromide), and extracted in isopropyl alcohol overnight. […]

Row | Substance | anti-irritating activity [1] | anti-irritating activity, comparison between esters [1] | effect on cell death [2] | reduction in the irritation potential of the shampoo ([1]; 5% ester in J&J Baby Shampoo, Table 9)
1 | Di-PPG-2-PEG-10 Myristyl Adipate | show anti-irritating activity | greater anti-irritating activity than Di-PPG-2-PEG-10 Lauryl Adipate | – | –
2 | Di-PPG-2-PEG-10 Steareth Ether Adipate [Di-PPG-2-PEG-10 Steareth Adipate] | – | greater anti-irritating activity than Di-PPG-2-PEG-10 Myristyl Adipate | – | –
3 | Di-PPG-3-PEG-4 Cetyl Ether Adipate | show anti-irritating activity, with the magnitude of activity being substantially greater | – | – | –
4 | Di-PPG-3-PEG-4 Myristyl Ether Adipate | – | – | substantially reduces cell death | dramatic reduction in the irritation potential
